Experimental data taken from the NIST ThermoML archive (doi:10.1016/j.fluid.2008.02.018).
Values joined by “and” are separate entries in the source; they are usually repeats but may differ in a detail not shown here. Identical values can stand only once. Numbers after ± are expanded uncertainties.

How the values were obtained:
[1] = Liquid; for mass density: 101.33 kPa
[2] = refractive index (Na D-line) (dimensionless); conditions: 298.15 K; 101.33 kPa; Liquid; Standard Abbe refractometry

mass density ([1]; 298.15 K) [kg/m3]	vapor or sublimation pressure ([1]; 298.15 K) [kPa]	vapor or sublimation pressure ([1]; 308.15 K) [kPa]	vapor or sublimation pressure ([1]; 318.15 K)	refractive index [2]	SMILES
945.3 ± 1.2	1.72 ± 0.09	2.8 ± 0.1	4.64 ± 0.13 kPa	1.4347 ± 0.0007	O=C1CCCC1 [cyclopentanone]
1250.9 ± 1.7	10.81 ± 0.23	17.02 ± 0.31	25.77 ± 0.42 kPa	1.4421 ± 0.0007	ClCCCl [1,2-dichloroethane]
943 ± 1.2	0.64 ± 0.06	1.15 ± 0.08	1.91 ± 0.09 kPa	1.4482 ± 0.0007	O=C1CCCCC1 [cyclohexanone]
1475.9 ± 2.1	26.44 ± 0.48	40.19 ± 0.65	58.69 ± 0.87 kPa and 58.68 ± 0.87 kPa	1.4428 ± 0.0007	ClC(Cl)Cl [trichloromethane]
